Reference: article PMC9986306, “Beyond CBD: Inhibitory effects of lesser studied phytocannabinoids on human voltage-gated sodium channels” (Frontiers in Physiology, 2023)
Marks after values point to notes of the source that are not given here.

Assays:
[1] = biological target: T1, human NaV1.2 channel (SCN2A, HEK293T cells) (Homo sapiens, UniProt Q99250); parameters: method as in Milligan et al., 2022; conditions: NaV1.2 concentration-response of CBD; mean ± SEM; ref Milligan et al., 2022; cited from earlier work
T1 construct: expressed in transfected cells

[2] = biological target: T2, human NaV1.7 channel (SCN9A, CHO cells) (Homo sapiens, UniProt Q15858); parameters: method as in Milligan et al., 2022; conditions: NaV1.7 concentration-response of CBD; mean ± SEM; ref Milligan et al., 2022; cited from earlier work
T2 construct: expressed in transfected cells
T2 sequence (Q15858 whole entry): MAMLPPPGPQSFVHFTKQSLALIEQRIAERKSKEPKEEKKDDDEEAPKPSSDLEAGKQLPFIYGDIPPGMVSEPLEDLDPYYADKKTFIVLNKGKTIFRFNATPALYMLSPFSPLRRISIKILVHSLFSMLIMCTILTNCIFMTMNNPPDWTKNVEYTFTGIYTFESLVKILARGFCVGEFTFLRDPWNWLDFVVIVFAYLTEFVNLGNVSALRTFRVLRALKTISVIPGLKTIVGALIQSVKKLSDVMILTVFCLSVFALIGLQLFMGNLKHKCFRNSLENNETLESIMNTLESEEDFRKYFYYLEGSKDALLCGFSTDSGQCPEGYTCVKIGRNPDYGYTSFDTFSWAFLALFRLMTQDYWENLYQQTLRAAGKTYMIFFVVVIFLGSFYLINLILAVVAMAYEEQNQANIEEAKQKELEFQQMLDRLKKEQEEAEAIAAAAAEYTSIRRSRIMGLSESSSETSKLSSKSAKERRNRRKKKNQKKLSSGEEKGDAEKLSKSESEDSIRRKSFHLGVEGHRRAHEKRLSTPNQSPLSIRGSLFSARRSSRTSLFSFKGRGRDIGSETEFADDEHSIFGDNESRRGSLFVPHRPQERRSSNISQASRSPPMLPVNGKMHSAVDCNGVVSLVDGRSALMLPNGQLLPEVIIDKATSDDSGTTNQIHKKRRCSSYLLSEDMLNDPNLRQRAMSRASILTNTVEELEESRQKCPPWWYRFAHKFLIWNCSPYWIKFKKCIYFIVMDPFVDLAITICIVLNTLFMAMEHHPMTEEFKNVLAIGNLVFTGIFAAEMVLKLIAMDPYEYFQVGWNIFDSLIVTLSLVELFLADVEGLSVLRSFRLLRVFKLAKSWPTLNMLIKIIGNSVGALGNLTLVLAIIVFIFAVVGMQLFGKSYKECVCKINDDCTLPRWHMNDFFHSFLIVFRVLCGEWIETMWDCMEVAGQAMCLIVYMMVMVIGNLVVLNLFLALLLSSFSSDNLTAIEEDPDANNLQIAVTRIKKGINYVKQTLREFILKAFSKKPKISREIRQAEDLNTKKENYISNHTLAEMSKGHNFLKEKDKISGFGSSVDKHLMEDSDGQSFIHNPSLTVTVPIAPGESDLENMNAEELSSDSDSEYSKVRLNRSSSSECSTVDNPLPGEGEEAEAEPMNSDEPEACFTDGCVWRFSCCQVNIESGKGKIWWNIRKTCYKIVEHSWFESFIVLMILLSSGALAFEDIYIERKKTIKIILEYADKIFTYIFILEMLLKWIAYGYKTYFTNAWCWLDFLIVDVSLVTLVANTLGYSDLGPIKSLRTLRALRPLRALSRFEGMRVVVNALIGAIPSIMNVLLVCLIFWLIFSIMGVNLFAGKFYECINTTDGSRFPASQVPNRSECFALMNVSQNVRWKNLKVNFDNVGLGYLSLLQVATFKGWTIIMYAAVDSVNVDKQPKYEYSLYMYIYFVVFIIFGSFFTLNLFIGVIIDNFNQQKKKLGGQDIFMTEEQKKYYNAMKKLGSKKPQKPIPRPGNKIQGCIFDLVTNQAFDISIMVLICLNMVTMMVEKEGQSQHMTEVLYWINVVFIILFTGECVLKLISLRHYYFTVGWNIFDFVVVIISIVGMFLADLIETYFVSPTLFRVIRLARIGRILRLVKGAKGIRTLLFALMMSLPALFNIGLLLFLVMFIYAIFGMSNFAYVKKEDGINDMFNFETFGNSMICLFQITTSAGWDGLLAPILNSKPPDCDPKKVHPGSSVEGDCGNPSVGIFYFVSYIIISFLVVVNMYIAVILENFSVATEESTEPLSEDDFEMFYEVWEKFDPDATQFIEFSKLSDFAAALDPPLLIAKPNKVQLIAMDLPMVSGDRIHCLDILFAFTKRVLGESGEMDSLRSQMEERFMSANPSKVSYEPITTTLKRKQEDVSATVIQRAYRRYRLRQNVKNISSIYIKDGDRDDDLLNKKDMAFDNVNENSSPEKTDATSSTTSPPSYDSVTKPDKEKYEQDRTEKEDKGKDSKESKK

[3] = test system: mouse models of neuropathic pain; parameters: method as in Abraham et al., 2020; Casey et al., 2022; conditions: ref Abraham et al., 2020, Casey et al., 2022; cited from earlier work
[4] = biological target: T3, human NaV1.6 channel (SCN8A, CHO cells) (Homo sapiens, UniProt Q9UQD0); parameters: method as in Milligan et al., 2022; conditions: NaV1.6 concentration-response of CBD; mean ± SEM; ref Milligan et al., 2022; cited from earlier work
T3 construct: expressed in transfected cells
T3 sequence (Q9UQD0 whole entry): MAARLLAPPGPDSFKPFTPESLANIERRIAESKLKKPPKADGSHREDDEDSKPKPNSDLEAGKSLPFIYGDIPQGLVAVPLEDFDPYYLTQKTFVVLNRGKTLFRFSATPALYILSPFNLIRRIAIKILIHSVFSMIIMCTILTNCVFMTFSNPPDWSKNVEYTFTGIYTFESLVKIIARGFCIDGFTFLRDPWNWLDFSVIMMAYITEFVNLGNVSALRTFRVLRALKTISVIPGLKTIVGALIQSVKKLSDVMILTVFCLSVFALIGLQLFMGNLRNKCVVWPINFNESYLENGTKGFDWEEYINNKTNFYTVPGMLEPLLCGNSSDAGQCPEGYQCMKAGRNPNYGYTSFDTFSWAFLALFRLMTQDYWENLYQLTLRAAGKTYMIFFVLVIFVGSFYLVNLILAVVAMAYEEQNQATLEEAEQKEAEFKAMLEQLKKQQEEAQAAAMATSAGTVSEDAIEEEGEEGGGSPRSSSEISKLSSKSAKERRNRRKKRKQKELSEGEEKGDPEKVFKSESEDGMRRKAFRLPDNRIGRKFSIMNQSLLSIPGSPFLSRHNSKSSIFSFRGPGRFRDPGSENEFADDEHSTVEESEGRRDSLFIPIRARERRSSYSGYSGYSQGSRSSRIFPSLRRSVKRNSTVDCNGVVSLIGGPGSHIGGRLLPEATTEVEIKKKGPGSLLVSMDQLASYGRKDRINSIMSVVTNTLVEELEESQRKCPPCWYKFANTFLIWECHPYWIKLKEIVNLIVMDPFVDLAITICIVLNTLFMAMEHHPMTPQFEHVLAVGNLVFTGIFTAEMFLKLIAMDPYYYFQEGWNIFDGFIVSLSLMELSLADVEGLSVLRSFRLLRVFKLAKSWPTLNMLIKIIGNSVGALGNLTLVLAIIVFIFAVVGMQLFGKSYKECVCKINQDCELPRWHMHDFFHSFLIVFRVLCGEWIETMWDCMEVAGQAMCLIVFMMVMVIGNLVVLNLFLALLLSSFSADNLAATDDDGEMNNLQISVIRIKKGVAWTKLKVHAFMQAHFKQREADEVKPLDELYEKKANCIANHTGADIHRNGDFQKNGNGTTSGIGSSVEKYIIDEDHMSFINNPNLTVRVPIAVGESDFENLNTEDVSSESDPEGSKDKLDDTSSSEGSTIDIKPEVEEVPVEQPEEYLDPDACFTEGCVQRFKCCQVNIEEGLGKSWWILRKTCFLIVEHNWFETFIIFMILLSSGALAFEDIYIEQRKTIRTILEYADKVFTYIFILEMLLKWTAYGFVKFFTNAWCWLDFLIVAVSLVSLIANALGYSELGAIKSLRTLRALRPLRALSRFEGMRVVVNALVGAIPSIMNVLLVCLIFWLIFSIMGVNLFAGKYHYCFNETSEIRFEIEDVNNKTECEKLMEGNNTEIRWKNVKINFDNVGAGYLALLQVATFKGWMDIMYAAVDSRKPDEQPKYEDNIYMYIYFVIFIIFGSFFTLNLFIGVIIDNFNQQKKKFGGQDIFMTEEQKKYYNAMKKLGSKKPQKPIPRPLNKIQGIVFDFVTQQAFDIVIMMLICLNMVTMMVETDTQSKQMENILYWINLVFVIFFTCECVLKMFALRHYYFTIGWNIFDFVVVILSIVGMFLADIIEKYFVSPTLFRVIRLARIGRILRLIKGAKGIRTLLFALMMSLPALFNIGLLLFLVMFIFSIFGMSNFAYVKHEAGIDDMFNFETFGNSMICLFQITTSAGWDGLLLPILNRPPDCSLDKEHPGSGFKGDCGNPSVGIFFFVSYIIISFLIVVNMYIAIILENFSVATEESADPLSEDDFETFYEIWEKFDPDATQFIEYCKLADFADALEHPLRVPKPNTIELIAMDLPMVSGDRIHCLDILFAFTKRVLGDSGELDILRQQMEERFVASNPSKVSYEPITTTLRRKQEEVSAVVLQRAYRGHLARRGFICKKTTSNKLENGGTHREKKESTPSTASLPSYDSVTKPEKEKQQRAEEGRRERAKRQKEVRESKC

[5] = biological target: T4, human NaV1.1 channel (SCN1A, HEK293T cells) (Homo sapiens, UniProt P35498); parameters: method as in Milligan et al., 2022; conditions: NaV1.1 concentration-response of CBD; mean ± SEM; ref Milligan et al., 2022; cited from earlier work
T4 construct: expressed in transfected cells

[6] = test system: patients with Dravet syndrome (DS) and Lennox-Gastaut syndrome (LGS); parameters: method as in earlier work; conditions: Phase III clinical trials, ref Devinsky et al., 2017a, 2017b, 2018, 2020, 2021, Tang and Fang; cited from earlier work
[7] = biological target: T4, human NaV1.1 channel (SCN1A, HEK293T cells); experiment: Planar patch-clamp, biophysical properties (activation, SSFI, recovery from SSFI); format: cell-based; conditions: change vs vehicle DMSO at IC50 concentration (CBD 18.5 μM, CBGA 13.6 μM, CBDVA 50 μM)
Experimental: (§1) HEK293T cells stably expressing SCN1A or SCN2A and CHO cells stably expressing SCN8A or SCN9A were maintained as previously described ([Richards et al., 2018]; [Milligan et al., 2022]).
(§2) Patch-clamp recordings were made using a Patchliner® (Nanion Technologies, Munich, Germany) in the whole-cell configuration as previously described ([Richards et al., 2018]; [Milligan et al., 2022]). Briefly, cells were prepared in suspension at a density of 1 × 10^6-5 × 10^7 cells/mL. The external recording solution comprised (in mM): 140 NaCl, 4 KCl, 1 MgCl2, 2 CaCl2, 5 D-glucose, 10 HEPES, pH 7.4 with NaOH, ∼295 mOsm. The internal recording solution comprised (in mM): 50 CsCl, 60 CsF, 10 NaCl, 20 EGTA, 10 HEPES, pH 7.2 with CsOH, ∼285 mOsm. Medium single-hole planar NPC-16 chips with an average resistance of ∼2.5 MΩ were used. Chip and whole-cell capacitance were fully compensated, and 50% series resistance compensation applied. Recordings were acquired at 50 kHz with the low pass filter set to 10 kHz in PATCHMASTER (HEKA Instruments, NY, United States) and performed at 27°C. Offline analysis was performed using Microsoft Excel, MatLab R2019a (MathWorks) and GraphPad Prism 8 (Molecular Devices).
(§3) Voltage protocols were used, as previously described ([Richards et al., 2018]). Briefly, to study the voltage-dependence of activation, cells were held at −120 mV and depolarized to test potentials, in 5 mV increments, between −120 mV and +50 mV for 100 ms. To study steady-state fast inactivation, cells were held at conditioning pre-pulse potentials ranging from −120 mV to +30 mV in 5 mV increments from a holding potential of −120 mV and a test pulse at 5 mV for 20 ms. Recovery from fast inactivation was studied by pre-pulsing the cells to 0 mV from a holding potential of −120 mV for 50 ms, to fully inactivate channels. The voltage was then stepped back to the holding potential for variable interpulse intervals (ipi from 0 to 39 ms in 3 ms increments). To test channel availability, the voltage was stepped to 0 mV for 50 ms.
(§4) To examine the voltage-dependence of activation, normalized current-voltage (I-V) relationships were converted to conductance (G) using the following equation: G = I/(V−V r ) where Vr is the reversal potential for Na^+. The voltage-dependence of conductance and availability were normalized and fitted to a Boltzmann equation: G = 1/(1 + exp [(V−V 0.5)/a]), where a is the slope of the half-maximum, V is the potential of the given pulse, and V 0.5 is the potential for the half-maximal activation/inactivation. The time course of inactivation was fitted to a single exponential function I/Imax = I0+A*exp (-t-t0/τ)+C, where I0 is the non-inactivating component, Imax is the peak current, t is time, and A is the component for the time constant τ. Time constants were plotted against voltage and the data fitted with a decaying exponential equation Y = span*exp (−K*x)+plateau, where span is the starting point of the curve, K is the decay factor, plateau is the value the curve decays to, and x is time. To measure recovery from inactivation, normalized currents were plotted against ipi and data fitted with equation I/I max = 1-exp/(rc + x), where I max is maximal current; rc recovery rate constant; x is time. Peak current (I) was plotted as fractional recovery against the recovery period by normalizing to the maximum current (Imax) during the conditioning potentials.

[8] = biological target: T3, human NaV1.6 channel (SCN8A, CHO cells); experiment: as above; format: cell-based; conditions: change vs vehicle DMSO at IC50 concentration (CBD 16.6 μM, CBGA 12.0 μM, CBDVA 24.1 μM)
Experimental: as §1, §2, §3, §4

[9] = biological target: T2, human NaV1.7 channel (SCN9A, CHO cells); experiment: as above; format: cell-based; conditions: change vs vehicle DMSO at IC50 concentration (CBD 11.9 μM, CBGA 16.4 μM, CBDVA 60 μM)
Experimental: as §1, §2, §3, §4

[10] = biological target: T1, human NaV1.2 channel (SCN2A, HEK293T cells); experiment: as above; format: cell-based; conditions: change vs vehicle DMSO at IC50 concentration (CBD 18.4 μM, CBGA 14.7 μM, CBDVA 60 μM)
Experimental: as §1, §2, §3, §4

## C=C(C)[C@@H]1CCC(C)=C[C@H]1c1c(O)cc(CCCCC)cc1O [CBD, cannabidiol, reference compound]
[1]
  Slope (Hill slope coefficient): 1.4 ± 0.4
[2]
  Slope (Hill slope coefficient): 3.1 ± 0.6
[3]
  Effect on allodynia: reduced allodynia
[4]
  Slope (Hill slope coefficient): 1.3 ± 0.4
[5]
  Slope (Hill slope coefficient): 2.1 ± 0.8
[6]
  Effect on seizures in patients: reduced seizures
[7]; SSFI
  Inactivation △ V0.5 inact: −5.6 ± 1.1**** mV
  Inactivation △ slope factor: 0.5 ± 0.3
[7]
  Activation △ Slope factor: 0.7 ± 0.2**
  Activation △ V0.5 act: 0.3 ± 1.2 mV
  Inactivation △ τinact SSFI at 5 mV: 0.03 ± 0.02
[8]; SSFI
  Inactivation △ V0.5 inact: −5.3 ± 3.6 mV
  Inactivation △ slope factor: −0.3 ± 0.7
[8]
  Activation △ Slope factor: 0.2 ± 0.2
  Activation △ V0.5 act: −0.6 ± 1.1 mV
  Inactivation △ τinact SSFI at 5 mV: 0.03 ± 0.06
[9]; SSFI
  Inactivation △ V0.5 inact: −3.7 ± 1.2** mV
  Inactivation △ slope factor: 1.2 ± 0.3***
[9]
  Activation △ Slope factor: 1.9 ± 0.3****
  Activation △ V0.5 act: 5.7 ± 2.3* mV
  Inactivation △ τinact SSFI at 5 mV: 0.3 ± 0.1*
[10]; SSFI
  Inactivation △ V0.5 inact: −4.2 ± 1.9 mV
  Inactivation △ slope factor: 0.1 ± 0.2
[10]
  Activation △ Slope factor: 1.0 ± 0.3*
  Activation △ V0.5 act: 3.3 ± 2.7 mV
  Inactivation △ τinact SSFI at 5 mV: 0.08 ± 0.07
